Common to all, as to assay: Determination of Inhibition Constants
What all share (details): pH 8; 25 °C

One experiment has as its target T1, Serine protease 1 (Bos taurus, UniProt P00760).
T1 sequence (P00760 whole entry): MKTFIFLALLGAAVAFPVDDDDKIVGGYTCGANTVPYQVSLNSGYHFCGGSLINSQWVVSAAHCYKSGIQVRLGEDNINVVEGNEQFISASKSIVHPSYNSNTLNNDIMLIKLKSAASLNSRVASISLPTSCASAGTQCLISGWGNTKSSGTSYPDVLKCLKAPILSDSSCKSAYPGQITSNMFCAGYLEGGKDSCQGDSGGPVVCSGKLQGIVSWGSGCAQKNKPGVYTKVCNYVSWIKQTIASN
As to the method: (§1) The measurements were carried out on a microplate reader. Two concentrations of the substrate and five concentrations of the inhibitor were used in the assay. […] The Ki-values were calculated according to Dixon using a linear regression program. The Ki-values reported are means from at least three determinations.

Experiment [1] deals with Urokinase-type plasminogen activator (Homo sapiens, UniProt P00749). As for the experimental part:
as §1

Experiment [2] addresses Tissue-type plasminogen activator (Homo sapiens, UniProt P00750). As for the experimental part: as §1

The structures appear in SMILES notation.

The values below come from BindingDB's records for doi:10.1006/jmbi.2000.3966 (Max-Planck-Institut Fuer Biochemie, 2000).

Tissue-type plasminogen activator, sequence (P00750 whole entry): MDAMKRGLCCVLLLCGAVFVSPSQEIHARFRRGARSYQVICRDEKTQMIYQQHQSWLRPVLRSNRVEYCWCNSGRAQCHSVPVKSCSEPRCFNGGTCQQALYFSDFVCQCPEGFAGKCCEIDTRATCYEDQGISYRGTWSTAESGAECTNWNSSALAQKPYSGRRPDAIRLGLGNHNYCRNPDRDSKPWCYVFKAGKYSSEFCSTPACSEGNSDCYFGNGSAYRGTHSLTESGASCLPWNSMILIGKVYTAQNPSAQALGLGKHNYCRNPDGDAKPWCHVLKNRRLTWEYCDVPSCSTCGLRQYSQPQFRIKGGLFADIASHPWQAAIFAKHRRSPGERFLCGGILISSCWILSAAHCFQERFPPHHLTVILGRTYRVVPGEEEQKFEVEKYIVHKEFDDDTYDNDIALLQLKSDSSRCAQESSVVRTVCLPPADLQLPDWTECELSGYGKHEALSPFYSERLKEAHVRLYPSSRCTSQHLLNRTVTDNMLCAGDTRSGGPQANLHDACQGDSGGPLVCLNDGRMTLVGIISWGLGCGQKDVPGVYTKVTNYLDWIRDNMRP

Broadly, the Ki is the equilibrium dissociation constant of an inhibitor or competing ligand from its target. Low readings indicate tighter binding, high ones weaker binding. Turning to `CCOC(=O)N1CCN(C(=O)C(Cc2cccc(C(=N)N)c2)NS(=O)(=O)c2c(C(C)C)cc(C(C)C)cc2C(C)C)CC1` (stereo not given), the Ki on Serine protease 1 was determined as 0.037 µM; in experiment [1] it was 0.41 µM; in experiment [2], 4.9 µM.

Regarding `N=C(N)NC(=O)c1nc(Cl)c(N)nc1N` [3,5-diamino-N-carbamimidoyl-6-chloropyrazine-2-carboxamide], the Ki is 32 µM at Serine protease 1 and over 1000 µM in experiment [2].

On to `CC(C)c1cc(C(C)C)c(S(=O)(=O)N[C@@H](Cc2cccc(C(=N)N)c2)C(=O)N2CCN(C(=O)CCN)CC2)c(C(C)C)c1` [3-[3-(4-beta-alanylpiperazin-1-yl)-3-oxo-2-({[2,4,6-tris(1-methylethyl)phenyl]sulfonyl}amino)propyl]benzenecarboximidamide], for which the figures for the Ki (on Serine protease 1; in experiment [2]) were 0.6 µM and 8.7 µM, respectively.

With `NC(N)=Nc1ccc(CNC(=O)NC23CC4CC(CC(C4)C2)C3)cc1` [3-adamantan-1-yl-1-[(4-carbamimidamidophenyl)methyl]urea], the values for the Ki (at Serine protease 1; in experiment [1]; in experiment [2]) were 46 µM, 2.4 µM and over 1000 µM, respectively.
